Laboratory results as given in patent publication US5338752A, “Substituted 2-imidazolone derivatives, their preparation and pharmaceutical compositions” (SK&F Laboratories Ltd., priority 1990, dated 1994).

Columns and labels:
[1] = target: T1, [^3 H]iloprost binding to human platelet membranes (Homo sapiens, UniProt P43119); test: Inhibition of [^3 H]iloprost binding to human platelet membranes; settings: [^3 H]iloprost 10 nM; pH 7.4; 30 min at 37° C.; calculated from IC50 for displacement
T1 construct: Membranes were prepared from outdated platelet-rich plasma concentrates obtained from the Blood Transfusion Service; from tissue; host or cells: human platelets (outdated platelet-rich plasma concentrates from the Blood Transfusion Service)
Description: METHOD FOR MEASUREMENT OF KI FOR INHIBITION OF [^3 H]ILOPROST BINDING TO HUMAN PLATELET MEMBRANES
Membranes were prepared from outdated platelet-rich plasma concentrates obtained from the Blood Transfusion Service. The platelets were homogenised in buffer containing Tris-Cl (5 mM, pH 7.4 at 20° C.) and EDTA (0.25 mM), and then centrifuged (10 min at 26,000 g). The membrane pellet was washed twice by homogenisation in buffer containing Tris-Cl (50 mM, pH 7.4 at 20° C.) and EDTA (0.25 mM), followed by centrifugation. For measurement of [^3 H]iloprost binding, membranes (0.4-0.8 mg) were incubated in the presence of Tris-Cl (50 mM, pH 7.4 at 20° C.), MgCl2 (4 mM), EDTA (40 μM), […] (10 nM), DMSO (1.85%), and varying concentrations of the test compounds. For determination of non-specific binding, 20 μM iloprost was included. The tubes (triplicates for each condition) were set up on ice, and then incubated for 30 min at 37° C. The incubations were terminated by rapid filtration on Whatman GF/B filters using a Brandel Harvester. The filters were washed and then counted for radioactivity. The Ki of the test compounds for inhibition of binding of [^3 H] iloprost to human platelet membranes was calculated from the IC50 for displacement of [^3 H]iloprost binding.

[2] = tested on: washed human platelets; test: Aggregation of washed human platelets (stimulus 1 μM U46619); type: cell-based; settings: Platelet; aspirin-treated washed human platelets; compound added 2 min before 1 μM U46619; assessed 4 min after stimulus; 37° C.
Description: METHOD FOR MEASUREMENT OF AGGREGATION OF WASHED HUMAN PLATELETS
Platelets were prepared from freshly drawn human blood. Blood was collected into acid citrate anticoagulant, centrifuged (5 min at 500 g), and the upper layer of platelet-rich plasma was removed. This platelet-rich plasma was incubated with aspirin (100 μM) for 10 min at 37° C. and then centrifuged (15 min at 200 g). The platelet pellet was resuspended (at approx. 1.5×10^8 cells/ml) in medium containing NaCl (145 mM), KCl (5 mM), MgCl2 (1 mM), CaCl2 (0.2 mM), Hepes (10 mM, ph 7.4 at 37° C.), glucose (10 mM), apyrase (10 μg/ml). Aggregation was monitored (as a change in optical density) at 37° C. in a 4 channel aggregometer (PAP-4 from Biodata Corp.). Fibrinogen (1 mg/ml) and CaCl2 (1 mM) were added to aliquots of platelets that were continuously stirred. The test compound (or 0.1% DMSO vehicle) was added 2 min before the aggregatory stimulus (1 μM U46619). The extent of aggregation was assessed 4 min after addition of the stimulus, and was calculated as % of the control response in the absence of test compound. Dose-response curves were constructed for measurement of IC50 values for each compound.

T1 sequence (P43119 whole entry, the tested form may be a part): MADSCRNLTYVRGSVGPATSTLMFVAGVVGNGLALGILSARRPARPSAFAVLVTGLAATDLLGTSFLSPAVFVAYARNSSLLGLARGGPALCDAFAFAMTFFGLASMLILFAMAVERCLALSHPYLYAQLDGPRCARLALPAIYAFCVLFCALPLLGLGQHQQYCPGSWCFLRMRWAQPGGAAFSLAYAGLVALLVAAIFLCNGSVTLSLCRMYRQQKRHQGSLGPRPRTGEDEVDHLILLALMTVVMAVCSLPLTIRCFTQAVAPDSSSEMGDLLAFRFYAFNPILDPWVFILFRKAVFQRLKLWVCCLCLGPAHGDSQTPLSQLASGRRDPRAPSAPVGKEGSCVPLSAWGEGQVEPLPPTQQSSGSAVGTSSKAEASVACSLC

Row | SMILES | Ki [1] | IC50 [2]
1 | O=c1n(CCCCCCCS(=O)(=O)O)c(-c2ccccc2)c(-c2ccccc2)n1-c1ccccc1 [Example 1, Sodium 7(3,4,5-triphenyl-2-oxo-2,3-dihydroimidazol-1-yl)-heptanesulphonate] | 8 µM | 0.25 µM
2 | CCOP(=O)(CCCCCCCn1c(-c2ccccc2)c(-c2ccccc2)n(-c2ccccc2)c1=O)OCC [Example 2, Diethyl 7-(3,4,5-triphenyl-2-oxo-2,3-dihydroimidazol-1-yl)heptanephosphonate] | 30 µM | 5.5 µM
3 | O=c1n(CCCCCCCP(=O)(O)O)c(-c2ccccc2)c(-c2ccccc2)n1-c1ccccc1 [Example 3, 7-(3,4,5-Triphenyl-2-oxo-2,3-dihydroimidazol-1-yl)-heptanephosphonic acid] | 1.29 µM | 43 µM
4 | CCOP(C)(=O)CCCCCCCn1c(-c2ccccc2)c(-c2ccccc2)n(-c2ccccc2)c1=O (centres unmarked) [Example 4, Ethyl 7-(3,4,5-triphenyl-2-oxo-2,3-dihydroimidazol-1-yl)methylphosphinate] | 19 µM | 21 µM
